Laboratory results as given in patent US20260152498A1, “4,5,6,7-TETRAHYDRO-1H-PYRAZOLO[4,3-c]PYRIDINE COMPOUNDS AND DERIVATIVES AS USP1 INHIBITORS” (EXELIXIS, INC., priority 2022, published 2026).

How the values were obtained:
USP1-UAF1 complex [1] = biological target: T1, USP1-UAF1 complex (Homo sapiens, UniProt O94782); test: biochemical
Method: (§1) Biochemical Assay: The compounds were evaluated for their potential to inhibit USP1-UAF1 complex (Boston Biochem, Catalog: E568-050) using a fluorescence-based assay. The final concentrations of USP1-UAF1 complex protein and substrate Ubiquitin-Rhodamine-110 (R&D systems, Catalog U-555-050) used in the assay were 0.45 and 150 nM respectively. 50 mM HEPES pH. 7.5, 100 mM NaCl, 0.5 mM EDTA, 1 mM TCEP, 10% BSA, 0.01% Tween 20 buffer was used in the assay. The total assay volume was 20 μL. […] The final DMSO concentration in the assay was 1%. The compounds were pre-incubated with USP1-UAF1 complex at 25° C. for 15 min. After preincubation, required concentration of substrate was added and incubated at 25° C. for 60 min. Fluorescence at Excitation: 485 nm, Emission: 535 nm was measured in Victor-5 from Perkin Elmer.
(§2) To determine IC50 values, dose response curves were generated by plotting percentage inhibition as a function of inhibitor concentration and the data was fitted to sigmoidal non-linear regression equation (variable slope) using Graph Pad prism software V8.
(§3) The compounds were screened by the above-mentioned assay procedure.

USP1-UAF1 complex [2] = biological target: T1, USP1-UAF1 complex; settings: 1.2 µM
Method: as §1, §2, §3

T1 sequence (O94782 whole entry): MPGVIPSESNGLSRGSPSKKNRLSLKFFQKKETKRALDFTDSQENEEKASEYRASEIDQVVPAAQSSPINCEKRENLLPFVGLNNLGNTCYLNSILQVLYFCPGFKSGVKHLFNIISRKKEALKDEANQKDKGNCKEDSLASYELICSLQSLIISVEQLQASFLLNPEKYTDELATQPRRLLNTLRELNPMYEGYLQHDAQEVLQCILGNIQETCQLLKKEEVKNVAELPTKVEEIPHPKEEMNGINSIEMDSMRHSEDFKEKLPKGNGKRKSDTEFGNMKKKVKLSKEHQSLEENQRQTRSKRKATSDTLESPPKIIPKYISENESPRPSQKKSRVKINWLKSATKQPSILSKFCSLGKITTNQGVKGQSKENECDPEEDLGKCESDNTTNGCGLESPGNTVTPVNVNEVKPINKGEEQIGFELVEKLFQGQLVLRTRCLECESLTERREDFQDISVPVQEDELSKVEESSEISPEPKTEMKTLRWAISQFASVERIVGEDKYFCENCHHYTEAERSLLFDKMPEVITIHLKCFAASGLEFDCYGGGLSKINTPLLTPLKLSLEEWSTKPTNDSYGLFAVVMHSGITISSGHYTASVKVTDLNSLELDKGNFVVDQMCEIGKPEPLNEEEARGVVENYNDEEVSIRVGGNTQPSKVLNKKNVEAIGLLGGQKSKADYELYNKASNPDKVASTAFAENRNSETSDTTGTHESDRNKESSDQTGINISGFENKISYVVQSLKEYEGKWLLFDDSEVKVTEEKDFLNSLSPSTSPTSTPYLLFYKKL
T1 sequence (Q8TAF3 whole entry partner): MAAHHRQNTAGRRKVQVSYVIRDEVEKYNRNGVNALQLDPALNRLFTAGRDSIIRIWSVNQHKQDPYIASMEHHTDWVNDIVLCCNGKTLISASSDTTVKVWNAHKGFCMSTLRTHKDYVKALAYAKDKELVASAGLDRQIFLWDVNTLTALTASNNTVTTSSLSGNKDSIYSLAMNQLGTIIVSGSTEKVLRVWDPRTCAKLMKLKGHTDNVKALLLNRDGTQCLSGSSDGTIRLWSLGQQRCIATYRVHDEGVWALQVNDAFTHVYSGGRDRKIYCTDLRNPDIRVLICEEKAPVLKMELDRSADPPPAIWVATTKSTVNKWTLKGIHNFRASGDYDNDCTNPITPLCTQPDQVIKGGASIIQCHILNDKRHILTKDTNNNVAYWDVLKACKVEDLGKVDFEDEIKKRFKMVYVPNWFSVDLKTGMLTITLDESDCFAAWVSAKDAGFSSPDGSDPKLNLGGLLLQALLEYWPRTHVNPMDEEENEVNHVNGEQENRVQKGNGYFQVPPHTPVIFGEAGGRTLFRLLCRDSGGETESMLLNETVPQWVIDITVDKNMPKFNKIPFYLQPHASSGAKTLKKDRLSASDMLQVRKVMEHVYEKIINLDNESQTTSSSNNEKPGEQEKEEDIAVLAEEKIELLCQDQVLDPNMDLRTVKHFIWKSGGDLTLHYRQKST

Compound | IC50 (USP1-UAF1 complex [1]) [µM] | inhibition (USP1-UAF1 complex [2]) [%]
COc1ncnc(C2CC2)c1-c1nn(C)c2c1CN(c1ccc(-c3nc(C(F)(F)F)cn3C3CCC3)cn1)CC2 [Compound 16, 5-(5-(1-cyclobutyl-4-(trifluoromethyl)-1H-imidazol-2-yl)pyridin-2-yl)-3-(4-cyclopropyl-6-methoxypyrimidin-5-yl)-1-methyl-4,5,6,7-tetrahydro-1H-pyrazolo[4,3-c]pyridine] | < 0.05 | 99
COc1ncnc(C2CC2)c1-c1nn(C(C)C)c2c1CN(c1ccc(-c3nc(C(F)(F)F)cn3C)cn1)CC2 [Compound 29, 3-(4-cyclopropyl-6-methoxypyrimidin-5-yl)-1-isopropyl-5-(5-(1-methyl-4-(trifluoromethyl)-1H-imidazol-2-yl)pyridin-2-yl)-4,5,6,7-tetrahydro-1H-pyrazolo[4,3-c]pyridine] | > 0.1 | 90
COc1ncnc(C2CC2)c1-c1nn(C)c2c1CN(c1ccc(-c3nc(C(F)(F)F)cn3C3CN(C)C3)cc1)CC2 [Compound 11, 3-(4-cyclopropyl-6-methoxypyrimidin-5-yl)-1-methyl-5-(4-(1-(1-methylazetidin-3-yl)-4-(trifluoromethyl)-1H-imidazol-2-yl)phenyl)-4,5,6,7-tetrahydro-1H-pyrazolo[4,3-c]pyridine] | > 0.1 | 86
COc1ncnc(C2CC2)c1-c1nn(C)c2c1CN(c1ccc(-n3nc(C(F)(F)F)cc3C)cc1)CC2 [Compound 17, 3-(4-cyclopropyl-6-methoxypyrimidin-5-yl)-1-methyl-5-(4-(5-methyl-3-(trifluoromethyl)-1H-pyrazol-1-yl)phenyl)-4,5,6,7-tetrahydro-1H-pyrazolo[4,3-c]pyridine] | < 0.05 | 100
COc1ncnc(C2CC2)c1-c1nn(C)c2c1CN(c1ccc(-c3nn(C)c4c3CN(C)CC4)cc1)CC2 [Compound 53, 3-(4-cyclopropyl-6-methoxypyrimidin-5-yl)-5-(4-(1,5-dimethyl-4,5,6,7-tetrahydro-1H-pyrazolo[4,3-c]pyridin-3-yl)phenyl)-1-methyl-4,5,6,7-tetrahydro-1H-pyrazolo[4,3-c]pyridine] | > 0.1 | 42
COc1ncnc(C2CC2)c1-c1nn(C2CC2)c2c1CN(c1ccc(-c3nc(C(F)(F)F)cn3C)nc1)CC2 [Compound 31, 1-cyclopropyl-3-(4-cyclopropyl-6-methoxypyrimidin-5-yl)-5-(6-(1-methyl-4-(trifluoromethyl)-1H-imidazol-2-yl)pyridin-3-yl)-4,5,6,7-tetrahydro-1H-pyrazolo[4,3-c]pyridine] | > 0.1 | 86
COc1ncnc(C2CC2)c1-c1nn(C)c2c1CN(c1ccc(-c3nc(C(F)(F)F)cn3C)cn1)CC2C (stereo not drawn) [Compound 40, 3-(4-cyclopropyl-6-methoxypyrimidin-5-yl)-1,7-dimethyl-5-(5-(1-methyl-4-(trifluoromethyl)-1H-imidazol-2-yl)pyridin-2-yl)-4,5,6,7-tetrahydro-1H-pyrazolo[4,3-c]pyridine] | 0.05 to 0.1 | 97
COc1ncnc(C2CC2)c1-c1nn(Cc2ccccc2)c2c1CN(c1ccc(-c3nc(C(F)(F)F)cn3C)cc1)CC2 [Compound 36, 1-benzyl-3-(4-cyclopropyl-6-methoxypyrimidin-5-yl)-5-(4-(1-methyl-4-(trifluoromethyl)-1H-imidazol-2-yl)phenyl)-4,5,6,7-tetrahydro-1H-pyrazolo[4,3-c]pyridine] | < 0.05 | 99
COc1nccc(C2CC2)c1-c1nn(C)c2c1CN(c1ccc(-c3nc(C(F)(F)F)cn3C)cc1)CC2 [Compound 60, 3-(4-cyclopropyl-2-methoxypyridin-3-yl)-1-methyl-5-(4-(1-methyl-4-(trifluoromethyl)-1H-imidazol-2-yl)phenyl)-4,5,6,7-tetrahydro-1H-pyrazolo[4,3-c]pyridine] | < 0.05 | 92
COc1ncnc(C2CC2)c1-c1nn(C2CC2)c2c1CN(c1ccc(-c3nc(C(F)(F)F)cn3C)cc1)CC2 [Compound 30, 1-cyclopropyl-3-(4-cyclopropyl-6-methoxypyrimidin-5-yl)-5-(4-(1-methyl-4-(trifluoromethyl)-1H-imidazol-2-yl)phenyl)-4,5,6,7-tetrahydro-1H-pyrazolo[4,3-c]pyridine] | < 0.05 | 98
COc1ncnc(C2CC2)c1-c1nn(C)c2c1CN(c1ccc(-c3nc(C(F)(F)F)cn3C3CCC3)cc1)CC2 [Compound 8, 5-(4-(1-cyclobutyl-4-(trifluoromethyl)-1H-imidazol-2-yl)phenyl)-3-(4-cyclopropyl-6-methoxypyrimidin-5-yl)-1-methyl-4,5,6,7-tetrahydro-1H-pyrazolo[4,3-c]pyridine] | < 0.05 | 100
COc1ncnc(C2CC2)c1-c1nn(C)c2c1CN(c1ccc(-c3nc(C(F)(F)F)cn3C3CNC3)cc1)CC2 [Compound 55, 5-(4-(1-(azetidin-3-yl)-4-(trifluoromethyl)-1H-imidazol-2-yl)phenyl)-3-(4-cyclopropyl-6-methoxypyrimidin-5-yl)-1-methyl-4,5,6,7-tetrahydro-1H-pyrazolo[4,3-c]pyridine] | > 0.1 | 87
COc1ncnc(C2CC2)c1-c1nn(C)c2c1CN(c1ccc(-c3nc(C(F)(F)F)cn3C)c(N(C)C)c1)CC2 [Compound 48, 5-(3-(4-cyclopropyl-6-methoxypyrimidin-5-yl)-1-methyl-1,4,6,7-tetrahydro-5H-pyrazolo[4,3-c]pyridin-5-yl)-N,N-dimethyl-2-(1-methyl-4-(trifluoromethyl)-1H-imidazol-2-yl)aniline] | 0.05 to 0.1 | 97
CCn1cc(C(F)(F)F)nc1-c1ccc(N2CCc3c(c(-c4c(OC)ncnc4C4CC4)nn3C)C2)nc1 [Compound 14, 3-(4-cyclopropyl-6-methoxypyrimidin-5-yl)-5-(5-(1-ethyl-4-(trifluoromethyl)-1H-imidazol-2-yl)pyridin-2-yl)-1-methyl-4,5,6,7-tetrahydro-1H-pyrazolo[4,3-c]pyridine] | 0.05 to 0.1 | 99
COCCn1cc(C(F)(F)F)nc1-c1ccc(N2CCc3c(c(-c4c(OC)ncnc4C4CC4)nn3C)C2)cc1 [Compound 9, 3-(4-cyclopropyl-6-methoxypyrimidin-5-yl)-5-(4-(1-(2-methoxyethyl)-4-(trifluoromethyl)-1H-imidazol-2-yl)phenyl)-1-methyl-4,5,6,7-tetrahydro-1H-pyrazolo[4,3-c]pyridine] | < 0.05 | 99
COc1ncnc(C2CC2)c1-c1nn(C)c2c1CN(c1ccc(-c3nc(C(F)(F)F)cn3C)cc1)CC2 [Compound 1, 3-(4-cyclopropyl-6-methoxypyrimidin-5-yl)-1-methyl-5-(4-(1-methyl-4-(trifluoromethyl)-1H-imidazol-2-yl)phenyl)-4,5,6,7-tetrahydro-1H-pyrazolo[4,3-c]pyridine] | 0.05 to 0.1 | 98
COc1ncccc1-c1ccc(N2CCc3c(c(-c4c(OC)ncnc4C4CC4)nn3C)C2)nc1 [Compound 22, 3-(4-cyclopropyl-6-methoxypyrimidin-5-yl)-5-(2'-methoxy-[3,3′-bipyridin]-6-yl)-1-methyl-4,5,6,7-tetrahydro-1H-pyrazolo[4,3-c]pyridine] | > 0.1 | 39
COc1ncnc(C2CC2)c1-c1nn(C(C)C)c2c1CN(c1ccc(-c3nc(C(F)(F)F)cn3C)cc1)CC2 [Compound 27, 3-(4-cyclopropyl-6-methoxypyrimidin-5-yl)-1-isopropyl-5-(4-(1-methyl-4-(trifluoromethyl)-1H-imidazol-2-yl)phenyl)-4,5,6,7-tetrahydro-1H-pyrazolo[4,3-c]pyridine] | < 0.05 | 98
CC(C)c1ncccc1-c1nn(C)c2c1CN(c1ccc(-c3nc(C(F)(F)F)cn3C)nc1)CC2 [Compound 4, 3-(2-isopropylpyridin-3-yl)-1-methyl-5-(6-(1-methyl-4-(trifluoromethyl)-1H-imidazol-2-yl)pyridin-3-yl)-4,5,6,7-tetrahydro-1H-pyrazolo[4,3-c]pyridine] | > 0.1 | 81
COc1cc(N2CCc3c(c(-c4c(OC)ncnc4C4CC4)nn3C)C2)ccc1-c1nc(C(F)(F)F)cn1C [Compound 46, 3-(4-cyclopropyl-6-methoxypyrimidin-5-yl)-5-(3-methoxy-4-(1-methyl-4-(trifluoromethyl)-1H-imidazol-2-yl)phenyl)-1-methyl-4,5,6,7-tetrahydro-1H-pyrazolo[4,3-c]pyridine] | 0.05 to 0.1 | 96
CCOc1cc(C(F)(F)F)nn1-c1ccc(N2CCc3c(c(-c4c(OC)ncnc4C4CC4)nn3C)C2)cc1 [Compound 20, 3-(4-cyclopropyl-6-methoxypyrimidin-5-yl)-5-(4-(5-ethoxy-3-(trifluoromethyl)-1H-pyrazol-1-yl)phenyl)-1-methyl-4,5,6,7-tetrahydro-1H-pyrazolo[4,3-c]pyridine] | < 0.05 | 99
COc1ncnc(C2CC2)c1-c1nn(C)c2c1CN(c1ccc(-c3nc(C(F)(F)F)cn3C)nc1)CC2(C)C [Compound 42, 3-(4-cyclopropyl-6-methoxypyrimidin-5-yl)-1,7,7-trimethyl-5-(6-(1-methyl-4-(trifluoromethyl)-1H-imidazol-2-yl)pyridin-3-yl)-4,5,6,7-tetrahydro-1H-pyrazolo[4,3-c]pyridine] | 0.05 to 0.1 | 96
COc1ncnc(C2CC2)c1-c1nn(C2CCC2)c2c1CN(c1ccc(-c3nc(C(F)(F)F)cn3C)nc1)CC2 [Compound 34, 1-cyclobutyl-3-(4-cyclopropyl-6-methoxypyrimidin-5-yl)-5-(6-(1-methyl-4-(trifluoromethyl)-1H-imidazol-2-yl)pyridin-3-yl)-4,5,6,7-tetrahydro-1H-pyrazolo[4,3-c]pyridine] | > 0.1 | 75
COc1ncnc(C2CC2)c1-c1nn(C(C)C)c2c1CN(c1ccc(-c3nc(C(F)(F)F)cn3C)nc1)CC2 [Compound 28, 3-(4-cyclopropyl-6-methoxypyrimidin-5-yl)-1-isopropyl-5-(6-(1-methyl-4-(trifluoromethyl)-1H-imidazol-2-yl)pyridin-3-yl)-4,5,6,7-tetrahydro-1H-pyrazolo[4,3-c]pyridine] | > 0.1 | 90
